According to patent US9630969B2, “N-alkyl tryptanthrin derivative, preparation method for same, and application thereof” (SHANGHAI TIN TSZ BIO VALLEY BIOLOGICAL ENGINEERING CO., LTD, priority 2013, dated 2017):
Like-named read-outs stand apart in the source and are kept apart here.

Experiments:
human IDO [1] = biological target: T1, human IDO (Homo sapiens, UniProt P14902); assay: biochemical
T1 construct: made in house; host or cells: Escherichia coli
Description: The reaction was conducted under 37° C. for 30 minutes and was terminated by 30% (w/v) trichloroacetic acid (200 μl). The reaction system was heated under 65° C. for 15 minutes to convert the formyl kynurenine into kynurenine, and then rotated under 12000 rpm for 10 minutes. The supernatant was taken to mix with isometric p-dimethyl amidogen benzaldehyde in acetic acid (2% (w/v)) solution. The yellow color caused by the reaction of the mixture and kynurenine, can be observed at 490 nm by using Microplate Reader. The results were calculated with IC50 calculation software (see Table 1).

human IDO [2] = biological target: T1, human IDO; assay: Determination of whether the inhibitor is reversible (v~[E] plot); type: biochemical; conditions: constant inhibitor concentration, different IDO enzyme amounts, 300 mM L-tryptophan, 37° C. 30 minutes
Description: In case that the inhibitor concentration was constant, a series of enzymes of different concentrations are reacted with the inhibitor and the reaction rate was measured. The reaction rate to the enzyme concentration (v˜[E]) was plotted, thus it can be determined that whether it is a reversible inhibitor according to the curve characteristics.
The mixture was incubated under 37° C. for 5 min, then different volumes of IDO enzymes were added. The reaction was conducted at 37° C. for 30 minutes and was terminated by adding 30% (w/v) trichloroacetic acid (200 μl). The reaction system was heated at 65° C. for 15 minutes to convert the formyl kynurenine to kynurenine, and then rotated under 12000 rpm for 10 minutes. The supernatant was taken to mix with isometric solution of p-dimethyl amidogen benzaldehyde in acetic acid (2% (w/v)). The off scale reading at 490 nm was observed using a Microplate Reader. The v˜[E] was plotted.

[3] = 150 mM substrate L-tryptophan, pH 6.5, 37° C. 30 minutes, read at 490 nm, read-out: IC50(in vitro)

T1 sequence (P14902 whole entry): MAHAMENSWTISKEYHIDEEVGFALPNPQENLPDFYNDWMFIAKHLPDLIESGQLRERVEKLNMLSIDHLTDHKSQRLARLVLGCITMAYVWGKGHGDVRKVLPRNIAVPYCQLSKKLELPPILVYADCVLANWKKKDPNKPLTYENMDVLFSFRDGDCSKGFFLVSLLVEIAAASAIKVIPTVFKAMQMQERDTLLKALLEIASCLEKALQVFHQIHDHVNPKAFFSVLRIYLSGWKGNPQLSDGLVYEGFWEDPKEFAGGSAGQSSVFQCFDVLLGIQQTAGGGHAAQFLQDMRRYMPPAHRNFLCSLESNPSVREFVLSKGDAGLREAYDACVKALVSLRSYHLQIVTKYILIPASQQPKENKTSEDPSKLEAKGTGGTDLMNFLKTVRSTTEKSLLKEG

| SMILES | IC50 (human IDO [1]) | Reversible Inhibitor or Not (human IDO [2]) | IC50 (human IDO [1]; [3]) |
| --- | --- | --- | --- |
| O=C1c2c(N3CCNCC3)cccc2-n2c1nc1ccccc1c2=O [Comparison 1, 7-piperazine tryptanthrin, reference compound] | 54.3 µM | Reversible | – |
| CN1CCN(c2ccc3nc4n(c(=O)c3c2)-c2ccc(F)cc2C4=O)CC1 [Compound 6] | – | Reversible | 2.2 µM |
| O=C1c2cc(F)ccc2-n2c1nc1ccc(N3CCCCC3)cc1c2=O [Compound 9] | – | Reversible | 1.8 µM |
| CN(C)c1ccc2nc3n(c(=O)c2c1)-c1ccc(F)cc1C3=O [Compound 7] | – | Reversible | 10.3 µM |
| O=C1c2cc(F)ccc2-n2c1nc1ccc(N3CCNCC3)cc1c2=O [Compound 5] | – | Reversible | 1.19 µM |
| CN1CCN(c2ccc3nc4n(c(=O)c3c2)-c2ccccc2C4=O)CC1 [Compound 11] | – | Reversible | 8.01 µM |
